This is an account of results in patent US11439707B2, “Hypocrellin derivative substituted both in a peri-position and in 2-position by amino, preparation method, and application thereof” (priority 2017, dated 2022).

The nature of series [1]: singlet oxygen efficiency test, reference rose bengal. It is filed as physicochemical.
Series [2] in a line: absorption spectrum (maximum absorption wavelength, molar extinction coefficient). The class given is physicochemical.

As for `COCCOCCNC(=O)CCCNc1c(NCCCC(=O)NCCOCCOC)c2c(=O)cc(OC)c3c4c(OC)cc(=O)c5c(O)c(OC)c6c(c(c1C=C(C)C6)c23)c54` [HC-8a-NH-PEG1], the singlet oxygen yield in series [1] is on record as 30%. Also, in series [2], the maximum absorption wavelength was 621 nm and the molar extinction coefficient is given as 30,500 M^−1cm^−1.
In series [1], `CCNNc1c(O)c2c(=O)cc(OC)c3c4c(OC)cc(=O)c5c(NNCC)c(OC)c6c(c(c1C=C(C)C6C(C)=O)c23)c54` (stereo not drawn) [HB-36b] showed a singlet oxygen yield of 30%. For the same compound, in series [2], the maximum absorption wavelength came to 622 nm and the molar extinction coefficient is listed as 31,500 M^−1cm^−1.
On to `COc1c2c3c4c(c(NCCSCCOCCO)c(=O)c5c(O)cc(OC)c(c6c(OC)cc(NCCSCCOCCO)c(c1=O)c63)c54)C=C(C)C2C(C)=O` (stereo not drawn) [HB-6d-PEG1], for which the singlet oxygen yield in series [1] worked out at 32%. Besides, in series [2], the maximum absorption wavelength amounted to 625 nm and the molar extinction coefficient is given as 30,500 M^−1cm^−1.
In series [1], `COc1c(O)c2c(=O)cc(OC)c3c4c(OC)cc(=O)c5c(NC(CC(N)=O)C(=O)O)c(NC(CC(N)=O)C(=O)O)c6c(c(c1C(C(C)=O)C(C)=C6)c23)c54` (stereo not drawn) [HB-26a] came in with a singlet oxygen yield of 20%. In addition, in series [2], the maximum absorption wavelength came out at 614 nm and the molar extinction coefficient is reported as 20,500 M^−1cm^−1.
In series [1], `COc1c(NCCO)c2c(=O)cc(OC)c3c4c(OC)cc(=O)c5c(O)c(NCCO)c6c(c(c1CC(C)=C6)c23)c54` [HC-2b] displayed a singlet oxygen yield of 33%. In series [2], this compound registered a maximum absorption wavelength of 624 nm and a molar extinction coefficient of 27.500 M⁻¹ cm⁻¹.
With `COc1c(O)c2c(=O)cc(OC)c3c4c(OC)cc(=O)c5c(NCCOCCO)c(NCCOCCO)c6c(c(c1CC(C)=C6)c23)c54` [HC-1a], the singlet oxygen yield in series [1] is on record as 36%. Besides, in series [2], the maximum absorption wavelength is listed as 628 nm and the molar extinction coefficient was 28,000 M^−1cm^−1.
`COCCOC(=O)CCCNc1c(NCCCC(=O)OCCOC)c2c(=O)cc(OC)c3c4c(OC)cc(=O)c5c(O)c(OC)c6c(c(c1C=C(C)C6C(C)=O)c23)c54` (stereo not drawn) [HB-8a-PEG1]: in series [1], the singlet oxygen yield stood at 28%. Also, in series [2], the maximum absorption wavelength amounted to 621 nm and the molar extinction coefficient is listed as 30,500 M^−1cm^−1.
As for `COCCOCCOCCOCCOCCOCCOCCC(=O)OCCOCCNc1c2c3c4c(c(OC)c(=O)c5c(NCCOCCOC(=O)CCOCCOCCOCCOCCOCCOCCOC)cc(OC)c(c6c(OC)cc(O)c(c1=O)c63)c54)CC(C)=C2` [HC-1d-PEG6], the singlet oxygen yield in series [1] came out at 34%. Further, in series [2], the maximum absorption wavelength was 622 nm and the molar extinction coefficient is listed as 34,500 M^−1cm^−1.
As for `COc1c(O)c2c(=O)cc(OC)c3c4c(OC)cc(=O)c5c(NCC6CCC(C(=O)O)CC6)c(NCC6CCC(C(=O)O)CC6)c6c(c(c1C(C(C)=O)C(C)=C6)c23)c54` (stereo not drawn) [HB-13a], the singlet oxygen yield in series [1] came to 28%. In series [2], the maximum absorption wavelength turned out to be 621 nm and the molar extinction coefficient was 28,500 M^−1cm^−1.
In turn, `COc1c(O)c2c(=O)cc(OC)c3c4c(OC)cc(=O)c5c(NCCO)c(NCCO)c6c(c(c1CC(C)=C6)c23)c54` [HC-2a] showed a singlet oxygen yield in series [1] of 32%. Also, in series [2], the maximum absorption wavelength was 627 nm and the molar extinction coefficient is 28.500 M⁻¹ cm⁻¹.
In the same order, the values of `COc1c(NCCOCCO)c2c(=O)cc(OC)c3c4c(OC)cc(=O)c5c(O)c(NCCOCCO)c6c(c(c1CC(C)=C6)c23)c54` [HC-1b] are 33%, 624 nm and 27,000 M^−1cm^−1.
Compound `COc1c(O)c2c(=O)cc(OC)c3c4c(OC)cc(=O)c5c(NCC6CCC(C(=O)OCC[N+](C)(C)C)CC6)c(NCC6CCC(C(=O)OCC[N+](C)(C)C)CC6)c6c(c(c1CC(C)=C6)c23)c54` (stereo not drawn) [HC-13a-C2-N^+] had a singlet oxygen yield in series [1] of 30%. In addition, in series [2], the maximum absorption wavelength was found to be 622 nm and the molar extinction coefficient was 30,500 M^−1cm^−1.
The compound `COCCOCCOCCOCCOCCOCCOC(=O)CCCNc1c2c3c4c(c(OC)c(=O)c5c(NCCCC(=O)OCCOCCOCCOCCOCCOCCOC)cc(OC)c(c6c(OC)cc(O)c(c1=O)c63)c54)C(C(C)=O)C(C)=C2` (stereo not drawn) [HB-8d-PEG6] came in with a singlet oxygen yield in series [1] of 32%. In addition, in series [2], the maximum absorption wavelength was 620 nm and the molar extinction coefficient was 31,500 M^−1cm^−1.
With `COc1c(O)c2c(=O)cc(OC)c3c4c(OC)cc(=O)c5c(NC6CCC(O)C6)c(NC6CCC(O)C6)c6c(c(c1C(C(C)=O)C(C)=C6)c23)c54` (stereo not drawn) [HB-20a], the singlet oxygen yield in series [1] turned out to be 20%. Moreover, in series [2], the maximum absorption wavelength worked out at 624 nm and the molar extinction coefficient is recorded as 24,500 M^−1cm^−1.
`COc1c2c3c4c(c(NCCOC(=O)N5CC(=O)NC(=O)C5)c(=O)c5c(O)cc(OC)c(c6c(OC)cc(NCCOC(=O)N7CC(=O)NC(=O)C7)c(c1=O)c63)c54)C=C(C)C2C(C)=O` (stereo not drawn) [HB-40d] displayed a singlet oxygen yield in series [1] of 30%. Further, in series [2], the maximum absorption wavelength is 628 nm and the molar extinction coefficient is given as 31,500 M^−1cm^−1.
As for `COc1c(NCCCC(=O)O)c2c(=O)cc(OC)c3c4c(OC)cc(=O)c5c(O)c(NCCCC(=O)O)c6c(c(c1CC(C)=C6)c23)c54` [HC-8b], the singlet oxygen yield in series [1] stood at 25%. Also, in series [2], the maximum absorption wavelength came to 622 nm and the molar extinction coefficient is 28,000 M^−1cm^−1.
`COc1c(O)c2c(=O)cc(OC)c3c4c(OC)cc(=O)c5c(NC(CO)C(=O)O)c(NC(CO)C(=O)O)c6c(c(c1C(C(C)=O)C(C)=C6)c23)c54` (stereo not drawn) [HB-23a]: the singlet oxygen yield in series [1] was 20%. In series [2], the maximum absorption wavelength is 625 nm and the molar extinction coefficient was 21,500 M^−1cm^−1.
`COCCOC(=O)C1CCCC(Nc2c(NC3CCCC(C(=O)OCCOC)C3)c3c(=O)cc(OC)c4c5c(OC)cc(=O)c6c(O)c(OC)c7c(c(c2C=C(C)C7C(C)=O)c34)c65)C1` (stereo not drawn) [HB-15a-PEG1]: the singlet oxygen yield in series [1] was 30%. Further, in series [2], the maximum absorption wavelength is 624 nm and the molar extinction coefficient is recorded as 30,000 M^−1cm^−1.
In the case of `COCCOCCC(=O)OCCOCCNc1c(NCCCC(=O)O)c2c(=O)cc(OC)c3c4c(OC)cc(=O)c5c(O)c(OC)c6c(c(c1C=C(C)C6C(C)=O)c23)c54` (stereo not drawn) [HB-48a-PEG1], in series [1], the singlet oxygen yield is listed as 32%. In addition, in series [2], the maximum absorption wavelength is reported as 628 nm and the molar extinction coefficient was 31,500 M^−1cm^−1.
As for `COCCOC(=O)C1CCC(Nc2c(NC3CCC(C(=O)OCCOC)C3)c3c(=O)cc(OC)c4c5c(OC)cc(=O)c6c(O)c(OC)c7c(c(c2C=C(C)C7C(C)=O)c34)c65)C1` (stereo not drawn) [HB-19a-PEG1], the singlet oxygen yield in series [1] is listed as 32%. Besides, in series [2], the maximum absorption wavelength stood at 624 nm and the molar extinction coefficient is 30,500 M^−1cm^−1.
Compound `COc1c(O)c2c(=O)cc(OC)c3c4c(OC)cc(=O)c5c(NCCC6CCC(O)CC6)c(NCCC6CCC(O)CC6)c6c(c(c1C(C(C)=O)C(C)=C6)c23)c54` (stereo not drawn) [HB-18a] gave a singlet oxygen yield in series [1] of 20%. Also, in series [2], the maximum absorption wavelength is recorded as 614 nm and the molar extinction coefficient is listed as 24,000 M^−1cm^−1.
In the same order, the values of `COCCOCCOCCOCCOCCOCCOCCOCCOCCOCCOCCOCCOCCN1C(=O)CN(C(=O)OCCNc2c3c4c5c(c(OC)c(=O)c6c(NCCOC(=O)N7CC(=O)N(CCOCCOCCOCCOCCOCCOCCOCCOCCOCCOCCOCCOCCOC)C(=O)C7)cc(OC)c(c7c(OC)cc(O)c(c2=O)c74)c65)C(C(C)=O)C(C)=C3)CC1=O` (stereo not drawn) [HB-40d-PEG12] are 30%, 628 nm and 30,500 M^−1cm^−1.
As to `COc1c(O)c2c(=O)cc(OC)c3c4c(OC)cc(=O)c5c(NCCC(=O)O)c(NCCC(=O)O)c6c(c(c1C(C(C)=O)C(C)=C6)c23)c54` (stereo not drawn) [HB-10a], the singlet oxygen yield in series [1] is recorded as 32%. In series [2], the maximum absorption wavelength amounted to 620 nm and the molar extinction coefficient is 31,000 M^−1cm^−1.
In turn, `COc1c2c3c4c(c(NCCC(=O)O)c(=O)c5c(O)cc(OC)c(c6c(OC)cc(NCCC(=O)O)c(c1=O)c63)c54)C=C(C)C2C(C)=O` (stereo not drawn) [HB-10d] yielded a singlet oxygen yield in series [1] of 32%. Further, in series [2], the maximum absorption wavelength amounted to 621 nm and the molar extinction coefficient is 32,500 M^−1cm^−1.
`COc1c2c3c4c(c(NC5CCC(C(=O)O)CC5)c(=O)c5c(NC6CCC(C(=O)O)CC6)cc(OC)c(c6c(OC)cc(O)c(c1=O)c63)c54)C=C(C)C2C(C)=O` (stereo not drawn) [HB-14c]: in series [1], the singlet oxygen yield stood at 26%. Also, in series [2], the maximum absorption wavelength is listed as 621 nm and the molar extinction coefficient is 28,000 M^−1cm^−1.
In the same order, the values of `COc1c(NC2CCCCC2C(=O)O)c2c(=O)cc(OC)c3c4c(OC)cc(=O)c5c(O)c(NC6CCCCC6C(=O)O)c6c(c(c1C(C(C)=O)C(C)=C6)c23)c54` (stereo not drawn) [HB-16b] are 26%, 625 nm and 26,000 M^−1cm^−1.
Compound `CCNc1c(NC2CCCC2)c2c(=O)c(SCCO)c(OC)c3c4c(OC)cc(=O)c5c(O)c(OC)c6c(c(c1C=C(C)C6C(C)=O)c23)c54` (stereo not drawn) [HB-S-44a] came in with a singlet oxygen yield in series [1] of 20%. Further, in series [2], the maximum absorption wavelength is reported as 628 nm and the molar extinction coefficient is 21,500 M^−1cm^−1.
With `COc1c(NCC2CCC(C(=O)NCCCC[P+](c3ccccc3)(c3ccccc3)c3ccccc3)CC2)c2c(=O)cc(OC)c3c4c(OC)cc(=O)c5c(O)c(NCC6CCC(C(=O)NCCCC[P+](c7ccccc7)(c7ccccc7)c7ccccc7)CC6)c6c(c(c1CC(C)=C6)c23)c54` (stereo not drawn) [HC-13b-NH—C4-PPh3+], the singlet oxygen yield in series [1] came to 34%. In series [2], the maximum absorption wavelength was 626 nm and the molar extinction coefficient is 30,500 M^−1cm^−1.
With `COCCOCCOCCOCCOCCOCCOC(=O)CCCNc1c(O)c2c(=O)cc(OC)c3c4c(OC)cc(=O)c5c(NCCCC(=O)OCCOCCOCCOCCOCCOCCOC)c(OC)c6c(c(c1C=C(C)C6)c23)c54` [HC-8b-PEG6], in series [1], the singlet oxygen yield was 32%. In series [2], the maximum absorption wavelength came to 624 nm and the molar extinction coefficient is recorded as 30,000 M^−1cm^−1.
